For one data set, the target named is Fom3 (Streptomyces fradiae, UniProt D2SNF5). Put plainly: Mössbauer spectroscopy of […]-labelled enzyme. The data set is classed as binding. The note with it: 4.2 K, 53 mT; binds to the [4Fe-4S] cluster.
Another data set has as its target FomD (Streptomyces fradiae, UniProt D2SNF7). In words: […]-NMR hydrolysis assay. The following applies: 100 μM FomD, 6 mM racemic HPP-CMP. The data set is classed as biochemical.
Substrate in data set [1]: Nc1ccn([C@@H]2O[C@H](COP(=O)(O)OP(=O)(O)CCO)[C@@H](O)[C@H]2O)c(=O)n1
Put plainly: steady-state kinetics, HPP-CMP formation by LC-MS/MS. The format is biochemical, Streptomyces fradiae. The following applies: 1 μM Fom3, SAM, Ti(III)citrate as reductant, anaerobic.

FomD, sequence (D2SNF7 whole entry): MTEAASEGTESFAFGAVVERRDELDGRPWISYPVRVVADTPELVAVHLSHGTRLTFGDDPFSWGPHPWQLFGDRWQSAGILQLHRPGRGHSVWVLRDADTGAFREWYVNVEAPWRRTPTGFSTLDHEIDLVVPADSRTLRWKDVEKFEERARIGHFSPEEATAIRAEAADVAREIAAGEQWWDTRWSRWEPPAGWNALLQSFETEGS

With `C[S+](CC[C@H](N)C(=O)O)C[C@H]1O[C@@H](n2cnc3c(N)ncnc32)[C@H](O)[C@@H]1O` (stereo partly shown) [SAM], the “Mössbauer spectroscopy of 57Fe-labelled enzyme” value at Fom3 is listed as “Upon incubating as-isolated Fom3 with SAM”.

For `CC(O)CP(=O)(O)OP(=O)(O)OC[C@H]1O[C@@H](n2ccc(N)nc2=O)[C@H](O)[C@@H]1O` (stereo partly shown) [HPP-CMP], the 31P-NMR hydrolysis assay result at FomD was “FomD from S. fradiae was overproduced and purified and then used in a reaction”.

B1: Fom3 (Streptomyces fradiae) (protein)
chain: MTIGSLGSTEFALHGKPAIRWGDLPQRVGKKASRRYQKVLLLNPSATLFRHDLPRCTYPLGLGYIAAVLEKYDYEVKILDVFAEGYYNAQPVDGDEQFLRYGLSDDDIVKVIKEFAPDVIGISSIFSNQADNVHHLLKLADLVAPEAVTSIGGAHARYFPKACLDDPNLDAVFLGEGEMTFLLWLEHLNGNVREDEVHGIAWRDRDGKIQIKPELPLISSMRPEGPEQGKSSPMLSMAGELDHIPFPAWHHYNMEKYFEIKAYQSPYTVGSRVGQLYTSRGCTAHCTFCTTTHFWGQKLRRRSVDNVVNEVLRLRDEYGIDEFHIQDDNITNDMDHARELFRAFKEVGLPWATPQGTALWRMDEELLDLMAESGAYQVTFAIESGVQRVLKDLIKKPLNLGRTSHLIKYARSLGMHVHGFFIIGMPPMFGNAGESIEEMQASYDYAEESGFSSASFFAASPIVGSELLRECIRQGFVDPEESLYRMTYKQGIINVPGLWDGEEIAELAAKFNRDFNARRDRDYTPQKQWNANQY
Turning to B1, in data set [1], the Km (commonly the concentration of substrate that gives half-maximal velocity) was 74 µM; the kcat (as a rule, the number of substrate molecules converted per active site and unit of time at saturation) is around 0.013 s⁻¹.

The values are drawn from article PMC6554712 (Biochemistry, 2018).
